Measured values: US6420330B1, “Use of quaternary carboxylic acid alkanolamine ester salts as microbicide agents” (Cognis Deutschland GmbH, priority 1997, dated 2002)

Columns and labels:
Assay in all cases: DGHM suspension test, microbicidal activity
Type in all cases: cell-based
[1] = tested on: Candida albicans ATCC 10231
Description: (§1) The microbicidal activity of the quanterary carboxylic acid alkanolamine ester salts used in accordance with the invention was tested against the following selected test germs:
(§2) The effectiveness of the compound to be tested was determined by the suspension test in accordance with the guidelines of the Deutsche Gesellschaft for Hygiene and Mikrobiologie (DGHM). Test solutions containing quatemary carboxylic acid alkanolamine ester salts in the quantities shown in the Tables of 50, 100, 200, 400 and 800 mg/l were prepared using water with a hardness of 17° dH and optionally isopropanol.
(§3) At room temperatures, quantities of 0.1 ml test germ suspension were pipetted into test tubes containing 10 ml of the test solutions described above and mixed. After various contact times of 5, 15, 30 and 60 minutes, 1 ml of material was taken from the test tubes by pipette and transferred to 9 ml inactivator solution (inactivators: 3.0% Tween, 0.3% lecithin, 0.1% histidine). After in activation for at least 5 and at most 30 minutes, the living germ count was determined by plating out onto casein peptone-soybean flour peptone (CaSo)-agar plates. Using a spiral plater, the inactivating mixture was directly plated out onto CaSo-agar. The samples were incubated for 24 to 72 hours at 37° C. and macroscopically evaluated for growth. The destruction time or the residual germ count was determined in this way. The germ count of an unchallenged water control is related to the germ count of the inactivated test solution taking the dilution into account. The higher the value, the better the microbicidal effect. The symbol < means that the logarithmic reductuon factor is below the indicated value or, in the case of the symbol >, above the indicated value. The abbreviation CU stands for “concentration used”.

[2] = tested on: Staphylococcus aureus ATCC 6538
Description: as §1, §2, §3

[3] = tested on: Pseudomonas aeruginosa ATCC 15442
Description: as §1, §2, §3

[4] = CU 50 mg/l, contact time 5 mins.
[5] = CU 50 mg/l, contact time 15 mins.
[6] = CU 50 mg/l, contact time 30 mins.
[7] = CU 50 mg/l, contact time 60 mins.
[8] = CU 100 mg/l, contact time 5 mins.
[9] = CU 100 mg/l, contact time 15 mins.
[10] = CU 100 mg/l, contact time 30 mins.
[11] = CU 100 mg/l, contact time 60 mins.
[12] = CU 200 mg/l, contact time 5 mins.
[13] = CU 200 mg/l, contact time 15 mins.
[14] = CU 200 mg/l, contact time 30 mins.
[15] = CU 200 mg/l, contact time 60 mins.
[16] = CU 400 mg/l, contact time 5 mins.
[17] = CU 400 mg/l, contact time 15 mins.
[18] = CU 400 mg/l, contact time 30 mins.
[19] = CU 400 mg/l, contact time 60 mins.
[20] = CU 800 mg/l, contact time 5 mins.
[21] = CU 800 mg/l, contact time 15 mins.
[22] = CU 800 mg/l, contact time 30 mins.
[23] = CU 800 mg/l, contact time 60 mins.

trimethyl ethanolammonium coconut fatty acid ester methosulfate [Example 4]
logarithmic reduction factor [1, 4]: <0.80
logarithmic reduction factor [1, 5]: <0.79
logarithmic reduction factor [1, 6]: 0.91
logarithmic reduction factor [1, 7]: 1.40
logarithmic reduction factor [1, 8]: 1.19
logarithmic reduction factor [1, 9]: 3.01
logarithmic reduction factor [1, 10]: >4.80
logarithmic reduction factor [1, 11]: >5.05
logarithmic reduction factor [1, 12]: 3.43
logarithmic reduction factor [1, 13]: >4.79
logarithmic reduction factor [1, 14]: >4.80
logarithmic reduction factor [1, 15]: >5.05
logarithmic reduction factor [1, 16]: >4.80
logarithmic reduction factor [1, 17]: >4.79
logarithmic reduction factor [1, 18]: >4.80
logarithmic reduction factor [1, 19]: >5.05
logarithmic reduction factor [1, 20]: >4.80
logarithmic reduction factor [1, 21]: >4.79
logarithmic reduction factor [1, 22]: >4.80
logarithmic reduction factor [1, 23]: >5.05
logarithmic reduction factor [2, 4]: <1.51
logarithmic reduction factor [2, 5]: <1.36
logarithmic reduction factor [2, 6]: <1.38
logarithmic reduction factor [2, 7]: 1.94
logarithmic reduction factor [2, 8]: <1.51
logarithmic reduction factor [2, 9]: 1.78
logarithmic reduction factor [2, 10]: 3.03
logarithmic reduction factor [2, 11]: 4.02
logarithmic reduction factor [2, 12]: <1.51
logarithmic reduction factor [2, 13]: 3.4
logarithmic reduction factor [2, 14]: 4.38
logarithmic reduction factor [2, 15]: >5.26
logarithmic reduction factor [2, 16]: 2.33
logarithmic reduction factor [2, 17]: 4.14
logarithmic reduction factor [2, 18]: >5.38
logarithmic reduction factor [2, 19]: >5.26
logarithmic reduction factor [2, 20]: 3.12
logarithmic reduction factor [2, 21]: >5.36
logarithmic reduction factor [2, 22]: >5.38
logarithmic reduction factor [2, 23]: >5.26
logarithmic reduction factor [3, 4]: <1.51
logarithmic reduction factor [3, 5]: <1.66
logarithmic reduction factor [3, 6]: <1.46
logarithmic reduction factor [3, 7]: <1.47
logarithmic reduction factor [3, 8]: <1.51
logarithmic reduction factor [3, 9]: <1.66
logarithmic reduction factor [3, 10]: <1.46
logarithmic reduction factor [3, 11]: <1.47
logarithmic reduction factor [3, 12]: <1.51
logarithmic reduction factor [3, 13]: <1.66
logarithmic reduction factor [3, 14]: <1.46
logarithmic reduction factor [3, 15]: <3.35
logarithmic reduction factor [3, 16]: <1.51
logarithmic reduction factor [3, 17]: 3.9
logarithmic reduction factor [3, 18]: >5.66
logarithmic reduction factor [3, 19]: >5.47
logarithmic reduction factor [3, 20]: 4.02
logarithmic reduction factor [3, 21]: >5.66
logarithmic reduction factor [3, 22]: >5.66
logarithmic reduction factor [3, 23]: >5.47

CCCCCCCC(=O)OCC[N+](C)(CCO)CCOC(=O)CCCCCCC.COS(=O)(=O)[O-] [Example 7, Methyl triethanolammonium dicaprylic acid ester methosulfate]
logarithmic reduction factor [1, 4]: >4.31
logarithmic reduction factor [1, 5]: >4.18
logarithmic reduction factor [1, 6]: >4.16
logarithmic reduction factor [1, 7]: >4.27
logarithmic reduction factor [1, 8]: >4.31
logarithmic reduction factor [1, 9]: >4.18
logarithmic reduction factor [1, 10]: >4.16
logarithmic reduction factor [1, 11]: >4.27
logarithmic reduction factor [1, 12]: >4.31
logarithmic reduction factor [1, 13]: >4.18
logarithmic reduction factor [1, 14]: >4.16
logarithmic reduction factor [1, 15]: >4.27
logarithmic reduction factor [1, 16]: >4.31
logarithmic reduction factor [1, 17]: >4.18
logarithmic reduction factor [1, 18]: >4.16
logarithmic reduction factor [1, 19]: >4.27
logarithmic reduction factor [1, 20]: >4.31
logarithmic reduction factor [1, 21]: >4.18
logarithmic reduction factor [1, 22]: >4.16
logarithmic reduction factor [1, 23]: >4.27
logarithmic reduction factor [2, 4]: >5.75
logarithmic reduction factor [2, 5]: >5.53
logarithmic reduction factor [2, 6]: >5.42
logarithmic reduction factor [2, 7]: >5.69
logarithmic reduction factor [2, 8]: >5.75
logarithmic reduction factor [2, 9]: >5.53
logarithmic reduction factor [2, 10]: >5.42
logarithmic reduction factor [2, 11]: >5.69
logarithmic reduction factor [2, 12]: >5.75
logarithmic reduction factor [2, 13]: >5.53
logarithmic reduction factor [2, 14]: >5.42
logarithmic reduction factor [2, 15]: >5.69
logarithmic reduction factor [2, 16]: >5.75
logarithmic reduction factor [2, 17]: >5.53
logarithmic reduction factor [2, 18]: >5.42
logarithmic reduction factor [2, 19]: >5.69
logarithmic reduction factor [2, 20]: >5.75
logarithmic reduction factor [2, 21]: >5.53
logarithmic reduction factor [2, 22]: >5.42
logarithmic reduction factor [2, 23]: >5.69
logarithmic reduction factor [3, 4]: <1.77
logarithmic reduction factor [3, 5]: <1.72
logarithmic reduction factor [3, 6]: <1.76
logarithmic reduction factor [3, 7]: 3.65
logarithmic reduction factor [3, 8]: 3.64
logarithmic reduction factor [3, 9]: >5.72
logarithmic reduction factor [3, 10]: >5.76
logarithmic reduction factor [3, 11]: >5.86
logarithmic reduction factor [3, 12]: 4.59
logarithmic reduction factor [3, 13]: >5.72
logarithmic reduction factor [3, 14]: 5.76
logarithmic reduction factor [3, 15]: >5.86
logarithmic reduction factor [3, 16]: 5.32
logarithmic reduction factor [3, 17]: >5.72
logarithmic reduction factor [3, 18]: >5.76
logarithmic reduction factor [3, 19]: >5.86
logarithmic reduction factor [3, 20]: >5.77
logarithmic reduction factor [3, 21]: >5.72
logarithmic reduction factor [3, 22]: >5.76
logarithmic reduction factor [3, 23]: >5.86

CCCCCCCCCC(=O)OCC[N+](C)(C)CCOC(=O)CCCCCCCCC.COS(=O)(=O)[O-] [Example 10, dimethyl diethanolammonium dicapric acid ester methosulfate]
logarithmic reduction factor [1, 4]: 2.87
logarithmic reduction factor [1, 5]: >4.84
logarithmic reduction factor [1, 6]: >4.89
logarithmic reduction factor [1, 7]: >4.80
logarithmic reduction factor [1, 8]: 4.27
logarithmic reduction factor [1, 9]: >4.84
logarithmic reduction factor [1, 10]: >4.89
logarithmic reduction factor [1, 11]: >4.80
logarithmic reduction factor [2, 8]: >5.56
logarithmic reduction factor [2, 9]: >5.55
logarithmic reduction factor [2, 10]: >5.72
logarithmic reduction factor [2, 11]: >5.69
logarithmic reduction factor [2, 12]: >5.56
logarithmic reduction factor [2, 13]: >5.55
logarithmic reduction factor [2, 14]: >5.72
logarithmic reduction factor [2, 15]: >5.69
logarithmic reduction factor [2, 16]: >5.56
logarithmic reduction factor [2, 17]: >5.55
logarithmic reduction factor [2, 18]: >5.72
logarithmic reduction factor [2, 19]: >5.69
logarithmic reduction factor [3, 8]: 3.11
logarithmic reduction factor [3, 9]: 3.48
logarithmic reduction factor [3, 10]: 3.95
logarithmic reduction factor [3, 11]: 4.84
logarithmic reduction factor [3, 12]: 3.54
logarithmic reduction factor [3, 13]: 4.51
logarithmic reduction factor [3, 14]: 5.50
logarithmic reduction factor [3, 15]: 5.44
logarithmic reduction factor [3, 16]: 4.31
logarithmic reduction factor [3, 17]: 5.04
logarithmic reduction factor [3, 18]: 5.64
logarithmic reduction factor [3, 19]: >5.79
